According to paper PMC11056980 (Journal of medicinal chemistry, 2024):

Tests used:
in vitro [1] = settings: human
[2] = test system: SARS-CoV-2 strain XBB.1.5; type: cell-based
in vitro [3] = settings: human, microsomes, pH 7.4
SARS-CoV-2 strain BA.1 = type: cell-based
SARS-CoV-2 M^Pro = SARS-CoV-2 M^Pro (Severe acute respiratory syndrome coronavirus 2, UniProt P0DTD1); type: biochemical; settings: 20 nM M^Pro, 30 min preincubation, 10 μM Sub3

| Structure (SMILES) | IC50 (SARS-CoV-2 M^Pro) [nM] | also measured |
| --- | --- | --- |
| C[C@@H](OC(C)(C)C)[C@H](NC(=O)OCc1ccccc1)C(=O)N[C@@H](CC1CCCCC1)C(=O)N[C@H](C=O)C[C@@H]1CCNC1=O [MPI8, reference compound] |  | CC50 at 48 h (in vitro [1]): 70000 nM |
| C[C@@H](OC(C)(C)C)[C@H](NC(=O)OCc1cccc(OCCCCCCOc2cccc3c2C(=O)N(C2CCC(=O)NC2=O)C3=O)c1)C(=O)N[C@@H](CC1CCCCC1)C(=O)N[C@H](C=O)C[C@@H]1CCNC1=O (some centres unmarked) [MPD2] |  | reduction of viral production [2]: 90%; CLint scaled (in vitro [3]): 36.3 ± 2.51 mL/min/kg; CLint scaled at 1 h, 5 µM (in vitro [3]): 36.2 mL/min/kg; reduction of viral production (SARS-CoV-2 strain BA.1): 90% |
| CC(C)(CCC(=O)NCCCC(=O)Nc1cccc2c1C(=O)N(C1CCC(=O)NC1=O)C2=O)NC(=O)N[C@H](C(=O)N1C[C@H]2[C@@H]([C@H]1C(=O)N[C@H](C=O)C[C@@H]1CCNC1=O)C2(C)C)C(C)(C)C (some centres unmarked) [MPD10] | 149 |  |
| CN(CCN(C)c1cccc2c1C(=O)N(C1CCC(=O)NC1=O)C2=O)C(=O)CCC(C)(C)NC(=O)N[C@H](C(=O)N1C[C@H]2[C@@H]([C@H]1C(=O)N[C@H](C=O)C[C@@H]1CCNC1=O)C2(C)C)C(C)(C)C (some centres unmarked) [MPD9] | 31 |  |
| C[C@@H](OC(C)(C)C)[C@H](NC(=O)OCc1cn(CCOCCOCCOCCC(=O)Nc2cccc3c2C(=O)N(C2CCC(=O)NC2=O)C3=O)nn1)C(=O)N[C@@H](CC1CCCCC1)C(=O)N[C@H](C=O)C[C@@H]1CCNC1=O (some centres unmarked) [MPD5] | 36 |  |
| C[C@@H](OC(C)(C)C)[C@H](NC(=O)OCc1cccc(OCCCCOc2cccc3c2C(=O)N(C2CCC(=O)NC2=O)C3=O)c1)C(=O)N[C@@H](CC1CCCCC1)C(=O)N[C@H](C=O)C[C@@H]1CCNC1=O (some centres unmarked) [MPD1] |  | CLint scaled (in vitro [3]): 149 ± 12.7 mL/min/kg |
| C[C@@H](OC(C)(C)C)[C@H](NC(=O)OCc1cn(CCOCCOCCOCCC(=O)N(C)CCN(C)c2cccc3c2C(=O)N(C2CCC(=O)NC2=O)C3=O)nn1)C(=O)N[C@@H](CC1CCCCC1)C(=O)N[C@H](C=O)C[C@@H]1CCNC1=O (some centres unmarked) [MPD6] | 111 |  |
| CC(C)(COCCCCCCOc1cccc2c1C(=O)N(C1CCC(=O)NC1=O)C2=O)NC(=O)N[C@H](C(=O)N1C[C@H]2[C@@H]([C@H]1C(=O)N[C@H](C=O)C[C@@H]1CCNC1=O)C2(C)C)C(C)(C)C (some centres unmarked) [MPD7] | 35 |  |
| C[C@@H](OC(C)(C)C)[C@H](NC(=O)OCc1cccc(OCCCCCCCCOc2cccc3c2C(=O)N(C2CCC(=O)NC2=O)C3=O)c1)C(=O)N[C@@H](CC1CCCCC1)C(=O)N[C@H](C=O)C[C@@H]1CCNC1=O (some centres unmarked) [MPD3] |  | CLint scaled (in vitro [3]): 24.7 ± 0.5 mL/min/kg |
| CC(C)(CCOCCCCCCOc1cccc2c1C(=O)N(C1CCC(=O)NC1=O)C2=O)NC(=O)N[C@H](C(=O)N1C[C@H]2[C@@H]([C@H]1C(=O)N[C@H](C=O)C[C@@H]1CCNC1=O)C2(C)C)C(C)(C)C (some centres unmarked) [MPD8] | 24 |  |
| C[C@@H](OC(C)(C)C)[C@H](NC(=O)OCc1cccc(OCCCCCCN(C)CCN(C)c2cccc3c2C(=O)N(C2CCC(=O)NC2=O)C3=O)c1)C(=O)N[C@@H](CC1CCCCC1)C(=O)N[C@H](C=O)C[C@@H]1CCNC1=O (some centres unmarked) [MPD4] | 36 |  |
